Test results published in patent publication US20120270929A1, “MODULATION OF TTC39 EXPRESSION TO INCREASE HDL” (ISIS Pharmaceuticals, Inc., priority 2009, published 2012).
Oligonucleotides are written 5' to 3', each unit as a sugar letter and its base; * is a phosphorothioate linkage, no mark a phosphodiester; rarer units and linkages stand in square brackets, end groups in braces. Plain capitals give the bases only. e = 2'-O-(2-methoxyethyl) (MOE); [5mC] = 5-methylcytosine; d = 2'-deoxy (DNA)

Legend:
Format in all cases: in vivo, mouse
[1] = test system: Farnesyl diphosphate synthetase (Fdps) mRNA; experiment: PCR microarray analysis of liver, LDLr-/- mice: Fdps; conditions: 6 weeks
Experimental: (§1) Four groups of five male mice each were injected with a total of 1.5, 5, 15, or 50 mg/kg/week of ISIS 447118 for 6 weeks. A group of five mice was injected with a total of 50 mg/kg/week of control oligonucleotide ISIS 141923 ([…], designated herein as SEQ ID NO: 112, which has no known murine target) for 6 weeks. A control group of five mice was injected with phosphate buffered saline (PBS) twice a week for 6 weeks. Plasma samples were obtained before the start of treatment, at week 3 and at week 6. At the end of the treatment period, the mice were euthanized. Plasma and tissue samples were obtained for further analysis.
(§2) Liver samples from the mice groups were analyzed using a commercial kit for PCR microarray analysis (SA Biosciences Corp., MD), according to the manufacturer's instructions. Genes involved in lipoprotein and cholesterol metabolism were compared with the PBS control.

[2] = test system: Sterol O-acyltransferase 2 (Soat2) mRNA; experiment: PCR microarray analysis of liver, LDLr-/- mice: Soat2; conditions: 6 weeks
Experimental: as §1, §2

[3] = test system: Low density lipoprotein receptor (Ldlr) mRNA; experiment: PCR microarray analysis of liver, LDLr-/- mice: Ldlr; conditions: 6 weeks
Experimental: as §1, §2

[4] = test system: Mevalonate (diphospho) decarboxylase (Mvd) mRNA; experiment: PCR microarray analysis of liver, LDLr-/- mice: Mvd; conditions: 6 weeks
Experimental: as §1, §2

[5] = test system: Insulin induced gene 1 (Insig1) mRNA; experiment: PCR microarray analysis of liver, LDLr-/- mice: Insig1; conditions: 6 weeks
Experimental: as §1, §2

[6] = test system: Proprotein convertase subtilisin/kexin type 9 (Pcsk9) mRNA; experiment: PCR microarray analysis of liver, LDLr-/- mice: Pcsk9; conditions: 6 weeks
Experimental: as §1, §2

[7] = test system: Apolipoprotein A-IV (ApoA4) mRNA; experiment: PCR microarray analysis of liver, LDLr-/- mice: ApoA4; conditions: 6 weeks
Experimental: as §1, §2

[8] = test system: Oxysterol binding protein-like 5 (Osbpl5) mRNA; experiment: PCR microarray analysis of liver, LDLr-/- mice: Osbpl5; conditions: 6 weeks
Experimental: as §1, §2

[9] = Plasma cholesterol and triglycerides in LDLr-/- mice
Experimental: The LDLr knockout mice model is a model for familial hypercholesterolemia developed by Ishibashi et al (J Clin Invest 1993; 92: 883-893). On a normal chow diet, the mice have an average total cholesterol of 250 mg/dL due to increases in LDL and VLDL cholesterol. This model is therefore highly susceptible to atherosclerosis (Ishibashi et al Proc Natl Acad Sci USA 1994; 91: 4431-4435).
as §1
To investigate the effect of inhibition of TTC39B on triglycerides and cholesterol levels in the plasma, samples were collected on weeks 0, 3, and 6, and total plasma cholesterol, LDL cholesterol, HDL cholesterol, and triglycerides were analyzed on an Olympus AU400e Analyzer.

Stabilin 1 (Stab1) mRNA = experiment: PCR microarray analysis of liver, LDLr-/- mice: Stab1; conditions: 6 weeks
Experimental: as §1, §2

[10] = 1.5 mg/kg/week, Week 0 (before treatment)
[11] = 5 mg/kg/week, Week 0 (before treatment)
[12] = 15 mg/kg/week, Week 0 (before treatment)
[13] = 50 mg/kg/week, Week 0 (before treatment)

With “GCAGCTCGATTCGGGCATGA (antisense eG*e[5mC]*eA*eG*e[5mC]*dT*d[5mC]*dG*dA*dT*dT*d[5mC]*dG*dG*dG*e[5mC]*eA*eT*eG*eA) [ISIS 447118]” the “Fdps fold increase/decrease relative to PBS group” value ([1]; 1.5 mg/kg) was 1.03 fold, the “Fdps fold increase/decrease relative to PBS group” value ([1]; 5 mg/kg) was 0.84 fold and the “Fdps fold increase/decrease relative to PBS group” value ([1]; 15 mg/kg) was 0.8 fold. For the same sequence, the “Fdps fold increase/decrease relative to PBS group” value ([1]; 50 mg/kg) was 0.66 fold, the “Soat2 fold increase/decrease relative to PBS group” value ([2]; 1.5 mg/kg) was 1.05 fold and the “Soat2 fold increase/decrease relative to PBS group” value ([2]; 5 mg/kg) was 0.88 fold. The “Soat2 fold increase/decrease relative to PBS group” value ([2]; 15 mg/kg) was 1.36 fold, the “Soat2 fold increase/decrease relative to PBS group” value ([2]; 50 mg/kg) was 1.79 fold and the “Ldlr fold increase/decrease relative to PBS group” value ([3]; 1.5 mg/kg) was 1.43 fold. For the same sequence, the “Ldlr fold increase/decrease relative to PBS group” value ([3]; 5 mg/kg) was 1.28 fold, the “Ldlr fold increase/decrease relative to PBS group” value ([3]; 15 mg/kg) was 1.79 fold and the “Ldlr fold increase/decrease relative to PBS group” value ([3]; 50 mg/kg) was 2.87 fold. The “Mvd fold increase/decrease relative to PBS group” value ([4]; 1.5 mg/kg) was 0.81 fold, the “Mvd fold increase/decrease relative to PBS group” value ([4]; 5 mg/kg) was 0.7 fold and the “Mvd fold increase/decrease relative to PBS group” value ([4]; 15 mg/kg) was 0.56 fold. The “Mvd fold increase/decrease relative to PBS group” value ([4]; 50 mg/kg) was 0.67 fold, the “Insig1 fold increase/decrease relative to PBS group” value ([5]; 1.5 mg/kg) was 0.96 fold and the “Insig1 fold increase/decrease relative to PBS group” value ([5]; 5 mg/kg) was 0.84 fold. The “Insig1 fold increase/decrease relative to PBS group” value ([5]; 15 mg/kg) was 0.68 fold, the “Insig1 fold increase/decrease relative to PBS group” value ([5]; 50 mg/kg) was 0.67 fold and the “Pcsk9 fold increase/decrease relative to PBS group” value ([6]; 1.5 mg/kg) was 0.83 fold. The “Pcsk9 fold increase/decrease relative to PBS group” value ([6]; 5 mg/kg) was 0.66 fold, the “Pcsk9 fold increase/decrease relative to PBS group” value ([6]; 15 mg/kg) was 0.4 fold and the “Pcsk9 fold increase/decrease relative to PBS group” value ([6]; 50 mg/kg) was 0.23 fold. The “ApoA4 fold increase/decrease relative to PBS group” value ([7]; 1.5 mg/kg) was 1.26 fold, the “ApoA4 fold increase/decrease relative to PBS group” value ([7]; 5 mg/kg) was 1.38 fold and the “ApoA4 fold increase/decrease relative to PBS group” value ([7]; 15 mg/kg) was 1.76 fold. The “ApoA4 fold increase/decrease relative to PBS group” value ([7]; 50 mg/kg) was 2.7 fold, the “Osbpl5 fold increase/decrease relative to PBS group” value ([8]; 1.5 mg/kg) was 1.7 fold and the “Osbpl5 fold increase/decrease relative to PBS group” value ([8]; 5 mg/kg) was 2.34 fold. The “Osbpl5 fold increase/decrease relative to PBS group” value ([8]; 15 mg/kg) was 3.11 fold, the “Osbpl5 fold increase/decrease relative to PBS group” value ([8]; 50 mg/kg) was 2.11 fold and the “HDL cholesterol % increase on week 6 (% change over baseline)” value ([9]; 1.5 mg/kg/week) was 36%. For the same sequence, the HDL cholesterol levels [9, 10] was 75 mg/dL, the LDL cholesterol levels [9, 10] was 115 mg/dL and the total cholesterol levels [9, 10] was 227 mg/dL. For the same sequence, the triglyceride levels [9, 10] was 126 mg/dL, the HDL cholesterol levels ([9]; 1.5 mg/kg/week, Week 3) was 71 mg/dL and the LDL cholesterol levels ([9]; 1.5 mg/kg/week, Week 3) was 116 mg/dL. The total cholesterol levels ([9]; 1.5 mg/kg/week, Week 3) was 217 mg/dL, the triglyceride levels ([9]; 1.5 mg/kg/week, Week 3) was 107 mg/dL and the HDL cholesterol levels ([9]; 1.5 mg/kg/week, Week 6) was 101 mg/dL. The LDL cholesterol levels ([9]; 1.5 mg/kg/week, Week 6) was 131 mg/dL, the total cholesterol levels ([9]; 1.5 mg/kg/week, Week 6) was 247 mg/dL and the triglyceride levels ([9]; 1.5 mg/kg/week, Week 6) was 142 mg/dL. For the same sequence, the “HDL cholesterol % increase on week 6 (% change over baseline)” value ([9]; 5 mg/kg/week) was 28%, the HDL cholesterol levels [9, 11] was 88 mg/dL and the LDL cholesterol levels [9, 11] was 112 mg/dL. It also gave a total cholesterol levels [9, 11] of 234 mg/dL, a triglyceride levels [9, 11] of 118 mg/dL and an HDL cholesterol levels ([9]; 5 mg/kg/week, Week 3) of 83 mg/dL. It also gave an LDL cholesterol levels ([9]; 5 mg/kg/week, Week 3) of 120 mg/dL, a total cholesterol levels ([9]; 5 mg/kg/week, Week 3) of 232 mg/dL and a triglyceride levels ([9]; 5 mg/kg/week, Week 3) of 122 mg/dL. The HDL cholesterol levels ([9]; 5 mg/kg/week, Week 6) was 112 mg/dL, the LDL cholesterol levels ([9]; 5 mg/kg/week, Week 6) was 130 mg/dL and the total cholesterol levels ([9]; 5 mg/kg/week, Week 6) was 261 mg/dL. For the same sequence, the triglyceride levels ([9]; 5 mg/kg/week, Week 6) was 149 mg/dL, the “HDL cholesterol % increase on week 6 (% change over baseline)” value ([9]; 15 mg/kg/week) was 45% and the HDL cholesterol levels [9, 12] was 84 mg/dL. The LDL cholesterol levels [9, 12] was 122 mg/dL, the total cholesterol levels [9, 12] was 239 mg/dL and the triglyceride levels [9, 12] was 120 mg/dL. The HDL cholesterol levels ([9]; 15 mg/kg/week, Week 3) was 82 mg/dL, the LDL cholesterol levels ([9]; 15 mg/kg/week, Week 3) was 133 mg/dL and the total cholesterol levels ([9]; 15 mg/kg/week, Week 3) was 249 mg/dL. The triglyceride levels ([9]; 15 mg/kg/week, Week 3) was 126 mg/dL, the HDL cholesterol levels ([9]; 15 mg/kg/week, Week 6) was 122 mg/dL and the LDL cholesterol levels ([9]; 15 mg/kg/week, Week 6) was 158 mg/dL. For the same sequence, the total cholesterol levels ([9]; 15 mg/kg/week, Week 6) was 294 mg/dL, the triglyceride levels ([9]; 15 mg/kg/week, Week 6) was 131 mg/dL and the “HDL cholesterol % increase on week 6 (% change over baseline)” value ([9]; 50 mg/kg/week) was 58%. The HDL cholesterol levels [9, 13] was 78 mg/dL, the LDL cholesterol levels [9, 13] was 99 mg/dL and the total cholesterol levels [9, 13] was 207 mg/dL. For the same sequence, the triglyceride levels [9, 13] was 98 mg/dL, the HDL cholesterol levels ([9]; 50 mg/kg/week, Week 3) was 85 mg/dL and the LDL cholesterol levels ([9]; 50 mg/kg/week, Week 3) was 111 mg/dL. For the same sequence, the total cholesterol levels ([9]; 50 mg/kg/week, Week 3) was 224 mg/dL, the triglyceride levels ([9]; 50 mg/kg/week, Week 3) was 96 mg/dL and the HDL cholesterol levels ([9]; 50 mg/kg/week, Week 6) was 124 mg/dL. For the same sequence, the LDL cholesterol levels ([9]; 50 mg/kg/week, Week 6) was 146 mg/dL, the total cholesterol levels ([9]; 50 mg/kg/week, Week 6) was 282 mg/dL and the triglyceride levels ([9]; 50 mg/kg/week, Week 6) was 115 mg/dL. For the same sequence, the “Stab1 fold increase/decrease relative to PBS group” value (Stabilin 1 (Stab1) mRNA; 1.5 mg/kg) was 1.15 fold, the “Stab1 fold increase/decrease relative to PBS group” value (Stabilin 1 (Stab1) mRNA; 5 mg/kg) was 1.19 fold and the “Stab1 fold increase/decrease relative to PBS group” value (Stabilin 1 (Stab1) mRNA; 15 mg/kg) was 1.35 fold. For the same sequence, the “Stab1 fold increase/decrease relative to PBS group” value (Stabilin 1 (Stab1) mRNA; 50 mg/kg) was 1.53 fold.
